Series [1] deals with NCI-H460-luc2 tumor xenograft. Nature of the series: Thermal cancer therapy with repeated sensitizer dosing, weekly bioluminescence imaging of tumor size over four weeks (Example 1, FIG. 13). In kind it is in vivo, BALB/c athymic nude mice. Conditions: i.v. three times per week, 0.1 ml of 0.2 mg/ml (iron dextran, iron sucrose) or 5 mg/ml (transferrin); 100 W 30 min or more; four weeks. The protocol:
After 4 hr, thermal treatment for 30 min or more using a radio-frequency hyperthermia system (EHY-2000, Oncothermia) with an energy dose of 100 W was performed for a total of four weeks, and the size of tumorous tissue was monitored every week. […] In the group to which transferrin was administered, 0.1 ml of the transferrin aqueous solution having a concentration of 5 mg/ml was intravenously injected. As such, the non-treated group and the saline-treated group were used as controls.
In order to analyze the size of tumorous tissue, bioluminescence imaging was regularly performed at an interval of one week, and analysis was performed using Igor Pro imaging analysis software.

Series [2] relates to NCI-H460-luc2 tumor xenograft. Kind of series: Thermal cancer therapy with sensitizer, bioluminescence imaging of tumor size in the last week (Example 1, FIG. 12). Particulars: i.v. 1 mg/kg metal ion-bound material or 20 mg/kg transferrin, 100 W 10 min, three times per week, four weeks. In kind it is in vivo, BALB/c athymic nude mice. The protocol:
Next, the potential to treat cancer was evaluated using the metal ion-bound material as the sensitizer upon thermal therapy. A lung cancer cell line NCI-H460-luc2 ([…] Sciences) was cultured, and 5×10^6 cells were subcutaneously injected into 6 to 8-week-old female BALB/c athymic nude mice (Damul Science), and the mice were bred for about 10 days so as to grow tumorous tissue to a size of 100 mm^3 or more, yielding the tumor xenograft animal models for the evaluation of cancer treatment effects. […] After 4 hr, thermal treatment was performed three times per week for a total of four weeks using a radio-frequency hyperthermia system (EHY-2000, Oncothermia) with an energy dose of 100 W for 10 min. As such, a non-treated group and a saline-treated group were set as controls. In order to analyze the size of tumorous tissue in the last week, bioluminescence imaging was performed. For bioluminescence of a luciferase-expressing cancer cell line NCI-H460-luc2, D-luciferin (Xenogen, USA) was intraperitoneally injected at a concentration of 150 mg luciferin/kg/d into the mice, the mice were anesthetized through inhalation using a mixture of isoflurane gas and oxygen, and luminous cancer cells were subjected to overlap photographing using a Xenogen imager (IVIS 200), and analyzed using Igor Pro imaging analysis software.

Another series deals with apotransferrin (Homo sapiens, UniProt P02787). Particulars: apotransferrin 200 mg/dL, 37° C. 30 min. The protocol: In order to evaluate binding capacity of the metal ion to apotransferrin, transferrin binding capacity (Unsaturated Iron-Binding Capacity, UIBC) was measured as follows depending on the concentration of iron ion (ferric iron, FeIII+).
Specifically, in order to prepare iron ion aqueous solutions, 3.6 g of FeCl3 (Sigma Aldrich, USA) was dissolved in 400 ml of distilled water with stirring for 20 min or longer, and then the pH of the resulting solution was adjusted to 9 with continuous stirring while a 5M NaOH solution was added dropwise. When a red brownish precipitate appeared, it was stirred at 90° C. for 2 hr and was then centrifuged at 5,000 rpm for 5 min, thus obtaining a ferric hydroxide precipitate, which was then washed with distilled water and dried. The ferric hydroxide in powder form was dissolved in distilled water, yielding ferric hydroxide solutions having concentrations of […]. Each of the ferric hydroxide solutions at individual concentrations was added with 200 mg/dL of apotransferrin (Sigma Aldrich, USA), and mixed in a vortex for 1 min, followed by allowing the reaction between apotransferrin and iron ion to progress at 37° C. for 30 min.
In order to measure the unsaturated iron-binding capacity (UIBC) of apotransferrin, a Ferrozine colorimetric method was used. As the iron standard, ferrous chloride was prepared at a concentration of […] in hydroxylamine hydrochloride, and the reaction solution of apotransferrin and iron was prepared as a test group. Specifically, 2 ml of 0.5M Tris buffer (pH 8) was aliquoted into all test tubes. The blank test tube was filled with 1 ml of distilled water, the standard test tube was filled with 0.5 ml of distilled water and 0.5 ml of the iron standard, and the experimental test tube was filled with 0.5 ml of the reaction solution of apotransferrin and iron ion and 0.5 ml of the iron standard, followed by mixing in a vortex for 1 min.
A spectrophotometer was zeroed at 560 nm, and the absorbance A1 was measured. Next, a 16.6 mM Ferrozine hydroxylamine hydrochloride solution was placed in an amount of […] in each of the test tubes, followed by mixing in a vortex for 1 min. All the test tubes were cultured at 37° C. for 10 min, and the absorbance A2 at 560 nm was measured. The absorbance A560 at 560 nm was calculated by subtracting the absorbance A1 from the absorbance A2.
The unsaturated iron-binding capacity (UIBC) was calculated as follows. UIBC=[standard conc.]−[standard conc.]×Test A560/Standard A560

The nature of series [3]: In vivo accumulation of metal ion in normal and tumorous tissue, ICP-MS (Test Example 5). Also on record: species or system BALB/c athymic nude mice; concentration of iron ion (ICP-MS): unit not given here. Particulars: 1 mg/kg i.v., after 24 hr. How it is done:
In order to evaluate the accumulation of the administered metal ion in tumorous tissue through in vivo animal testing, tumor xenograft animal models were manufactured as follows. Specifically, a lung cancer cell line NCI-H460-luc2 (Califer Life Sciences) was cultured, and 5×10^6 cells were subcutaneously injected into 6- to 8-week-old female BALB/c athymic nude mice (Damul Science), and the mice were bred for about 10 days so as to grow tumorous tissue to a size of 100 mm^3 or more, yielding the tumor xenograft animal models.
After 24 hr, in order to carry out inductively coupled plasma mass spectrometry (ICP-MS), 1 g of each tissue was ground using a tissue grinder in an ice bath, and 1 ml of the ground solution was dried at −60° C. in a vacuum of 7 μmHg for 24 hr. The dried powder was added with 2 ml of 6N HCl, placed in a sealed glass reactor, and cultured in an incubator at 55° C. After 12 hr or longer, each sample was mixed in a vortex and then centrifuged at 1,000 rpm for 15 min, and the supernatant was dried with nitrogen gas, added with 1 ml of 0.01N HCl, mixed in a vortex, and then centrifuged at 1,000 rpm for 15 min. The supernatant was recovered, and the concentrations of the metal ions in the normal tissue and the tumorous tissue were measured through ICP-MS (Varian 800-MS, Palo Alto, US).

For series [4], the system named is NCI-H460-luc2 tumor xenograft. Kind of series: Temperature of normal and tumorous tissue of tumor xenograft mice on application of electromagnetic waves after sensitizer (Example 1, FIGS. 9 to 11). The class given is in vivo, BALB/c athymic nude mice. Particulars: i.v. iron sucrose 1 mg/kg or transferrin 20 mg/kg, 4 hr after administration, 100 W for 3 min. How it is done:
To this end, a lung cancer cell line NCI-H460-luc2 (Califer Life Sciences) was cultured, and 5×10^6 cells were subcutaneously injected into 6 to 8-week-old female BALB/c athymic nude mice (Damul Science), and the mice were bred for about 10 days so as to grow tumorous tissue to a size of 100 mm^3 or more, yielding the tumor xenograft animal models for the evaluation of cancer treatment effects.
As the sensitizing composition for thermal therapy, iron sucrose was prepared in the same manner as in Test Example 1, and 0.1 ml of the iron sucrose aqueous solution having a concentration of 0.2 mg/ml was intravenously injected into the established tumor xenograft mice so as to reach a dose of 1 mg/kg.
As the sensitizing composition for thermal therapy, “iron ion-bound apotransferrin” (transferrin) was prepared in the same manner as in Test Example 3, and 0.1 ml of the transferrin aqueous solution having a concentration of 5 mg/ml was intravenously injected into the established tumor xenograft mice so as to reach a dose of 20 mg/kg.
As the control, saline was administered. 4 hr after administration, electromagnetic waves were applied in an energy dose of 100 W for 3 min using a radio-frequency hyperthermia system (EHY-2000, Oncothermia), and the temperatures of normal tissue and tumorous tissue were measured using a thermal imaging device (E60, Korea Rental, Korea).

Where two headings read alike, the source gives them in different places.

apotransferrin, sequence (P02787 20-698): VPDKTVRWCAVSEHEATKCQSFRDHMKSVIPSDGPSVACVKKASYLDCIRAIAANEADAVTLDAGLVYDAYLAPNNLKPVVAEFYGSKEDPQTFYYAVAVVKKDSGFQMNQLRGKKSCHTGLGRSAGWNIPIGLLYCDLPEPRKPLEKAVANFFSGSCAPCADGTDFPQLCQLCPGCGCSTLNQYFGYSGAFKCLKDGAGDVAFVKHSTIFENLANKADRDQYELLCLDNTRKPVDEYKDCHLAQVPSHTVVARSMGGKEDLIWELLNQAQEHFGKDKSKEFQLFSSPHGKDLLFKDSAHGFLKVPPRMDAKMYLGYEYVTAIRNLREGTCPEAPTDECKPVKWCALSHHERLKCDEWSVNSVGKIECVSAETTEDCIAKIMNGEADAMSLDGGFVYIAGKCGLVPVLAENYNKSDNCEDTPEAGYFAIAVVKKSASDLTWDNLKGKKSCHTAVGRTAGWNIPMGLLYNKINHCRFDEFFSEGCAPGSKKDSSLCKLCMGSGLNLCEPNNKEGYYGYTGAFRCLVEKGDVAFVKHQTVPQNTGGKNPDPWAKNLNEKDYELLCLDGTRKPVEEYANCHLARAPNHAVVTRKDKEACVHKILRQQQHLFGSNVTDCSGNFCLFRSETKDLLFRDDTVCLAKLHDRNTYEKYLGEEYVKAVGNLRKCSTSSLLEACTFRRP

Take Iron dextran [reference compound]: in series [1], the “growth of cancer upon thermal treatment using electromagnetic waves (bioluminescence imaging)” value was “significantly reduced”. Further, the “cancer treatment effects through thermal therapy (size of tumorous tissue, bioluminescence imaging)” value in series [2] was “excellent”.
Turning to `[Fe+3].[OH-].[OH-].[OH-]` [iron ion, ferric hydroxide], the UIBC at apotransferrin (Iron conc. 10 μg/dL) worked out at 498 µg/dL; on apotransferrin (Iron conc. 50 μg/dL), 481 µg/dL; at apotransferrin (Iron conc. 200 μg/dL), 332 µg/dL; on apotransferrin (Iron conc. 500 μg/dL), 119 µg/dL.
As to “ferric hydroxide sucrose complex [Iron sucrose]”, the “growth of cancer upon thermal treatment using electromagnetic waves (bioluminescence imaging)” value in series [1] was “significantly reduced”. The “Fold increase of iron ion vs saline” value turned out to be 2.05 in series [3] (Brain); 3.08 in series [3] (Heart); 1.05 in series [3] (Kidney); 2.26 in series [3] (Liver); 0.98 in series [3] (Muscle); 2.99 in series [3] (Stomach). Further, the “Fold increase of iron ion vs saline” value in series [3] (Tumor, 1 mg/kg) is reported as not below 3.3; in series [3] (Tumor, listed as Fe-Sucrose, 1 mg/kg), 3.29. For the same compound, the “concentration of iron ion (ICP-MS)” value was determined as 46.2 ± 8.6 in series [3] (Brain); 99.2 ± 2.8 in series [3] (Heart); 59.8 ± 4.1 in series [3] (Kidney); 168.2 ± 37.3 in series [3] (Liver); 28.9 ± 22.1 in series [3] (Muscle); 83.1 ± 27.7 in series [3] (Stomach). In series [3] (Tumor), the “concentration of iron ion (ICP-MS)” value came to 44.4 ± 3.9. Besides, the “changes in the temperature before and after the application of electromagnetic waves” value came out at 1 °C in series [4] (normal tissue) and 1.9 °C in series [4] (tumorous tissue). The “cancer treatment effects through thermal therapy (size of tumorous tissue, bioluminescence imaging)” value in series [2] is reported as “excellent”.
